# Assay results as given in ChEMBL document CHEMBL1145337, “Antitumor agents. 5. synthesis, structure-activity relationships, and biological evaluation of dimethyl-5H-pyridophenoxazin-5-ones, tetrahydro-5h-benzopyridophenoxazin-5-ones, and 5h-benzopyridophenoxazin-5-ones with potent antiproliferative activity” (J Med Chem, 2006).
# The source made the active and inactive calls. The rule behind the calls is not given here. *1 amine or outer side, *2 acyl side, *3 side chain or, on linkers, in order; H or OH if unused. Where a SMILES comes first, the peptide text is derived from it. Bridges are numbered along the chain shown (N, C = ends). Roman numbers before positions name the chains, in order. [ ]: non-standard residue; d: D form. Actinocin(1to9) = Cc1c2oc3c(C)ccc(C(=O)[*:2])c3nc-2c(C(=O)[*:1])c(N)c1=O; NMeV = CN[C@H](C(=O)O)C(C)C; Sar = CNCC(=O)O
# How the values were obtained:
# MOLT-4 = test: Antiproliferative activity against human MOLT4 cell line by MTT assay; format: functional, cell-based
# WIL2-NS = test: Antiproliferative activity against human Wil2-NS cells by MTT assay; format: functional, cell-based
# C8166 = test: Antiproliferative activity against human C8166 cell line by MTT assay; format: functional, cell-based
# MT4 = test: Antiproliferative activity against human MT4 cell line by MTT assay; format: functional, cell-based
# CCRF-SB = test: Antiproliferative activity against human CCRF-SB cell line by MTT assay; format: functional, cell-based
# CCRF-CEM = test: Antiproliferative activity against human CCRF-CEM cell line by MTT assay; format: functional, cell-based
# G-361 = test: Antiproliferative activity against human G361 cell line by MTT assay; format: functional, cell-based
# HT-29 [1] = test: Antiproliferative activity against human HT29 cell line by MTT assay; format: functional, cell-based
# HeLa = test: Antiproliferative activity against human HeLa cells by MTT assay; format: functional, cell-based
# HEp-2 = test: Antiproliferative activity against human Hep2 cell line by MTT assay; format: functional, cell-based
# ACHN = test: Antiproliferative activity against human ACHN cell line by MTT assay; format: functional, cell-based
# 5637 = test: Antiproliferative activity against human 5637 cell line by MTT assay; format: functional, cell-based
# KB = test: Antiproliferative activity against human KB cell line by MTT assay; format: functional, cell-based
# [2] = molecular target: T1, DNA topoisomerase 1 (Homo sapiens) (UniProt P11387); test: Promotion of human topoisomerase 1-mediated DNA cleavage
# T1 sequence (whole entry): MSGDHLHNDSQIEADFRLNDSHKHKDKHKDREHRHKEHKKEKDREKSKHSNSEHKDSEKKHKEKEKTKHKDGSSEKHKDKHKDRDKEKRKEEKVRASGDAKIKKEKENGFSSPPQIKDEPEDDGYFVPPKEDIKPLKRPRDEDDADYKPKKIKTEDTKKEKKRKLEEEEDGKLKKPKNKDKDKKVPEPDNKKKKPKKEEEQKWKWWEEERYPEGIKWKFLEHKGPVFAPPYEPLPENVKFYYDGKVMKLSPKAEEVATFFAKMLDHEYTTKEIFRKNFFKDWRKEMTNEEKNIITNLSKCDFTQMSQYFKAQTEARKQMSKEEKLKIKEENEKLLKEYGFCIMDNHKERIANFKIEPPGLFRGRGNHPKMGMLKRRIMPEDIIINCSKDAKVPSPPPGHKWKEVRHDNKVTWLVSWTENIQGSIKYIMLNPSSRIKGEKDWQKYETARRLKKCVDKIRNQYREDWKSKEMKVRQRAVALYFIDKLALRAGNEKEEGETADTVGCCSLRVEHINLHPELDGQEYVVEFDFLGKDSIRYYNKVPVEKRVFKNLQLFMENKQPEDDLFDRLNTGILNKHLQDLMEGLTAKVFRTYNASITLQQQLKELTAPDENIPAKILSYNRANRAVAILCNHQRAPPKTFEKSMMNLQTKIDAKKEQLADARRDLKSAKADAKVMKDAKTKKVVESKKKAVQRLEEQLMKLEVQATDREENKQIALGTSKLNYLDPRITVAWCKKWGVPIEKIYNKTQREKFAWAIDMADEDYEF
# [3] = molecular target: DNA topoisomerase II (Homo sapiens) (UniProt P11388+Q02880); test: Promotion of human topoisomerase 2-mediated DNA cleavage; format: protein assay
# HT-29 [4] = test: Cell cycle arrest in HT29 cells by accumulation at G2/M phase by flow cytometry at […]; format: functional, Homo sapiens
# HT-29 [5] = test: Cell cycle arrest in HT29 cells by accumulation at G0/G1 phase by flow cytometry at […]; format: functional, Homo sapiens
# HT-29 [6] = test: Cell cycle arrest in HT29 cells by accumulation at S phase by flow cytometry at […]; format: functional, Homo sapiens
# [7] = molecular target: T1, DNA topoisomerase 1 (Homo sapiens); test: Unwinding of DNA mediated by topoisomerase 1 at 20 uM
SMILES,IC50 (MOLT-4) [nM],IC50 (WIL2-NS) [nM],IC50 (C8166) [nM],IC50 (MT4) [nM],IC50 (CCRF-SB) [nM],IC50 (CCRF-CEM) [nM],IC50 (G-361) [nM],IC50 (HT-29 [1]) [nM],IC50 (HeLa) [nM],IC50 (HEp-2) [nM],IC50 (ACHN) [nM],IC50 5637 [nM],IC50 (KB) [nM],Activity [2],Activity [3],Activity (HT-29 [4]) [%],Activity (HT-29 [5]) [%],Activity (HT-29 [6]) [%],Activity [7]
Cc1ccc2oc3cc(=O)c4ncccc4c-3nc2c1C,2700,2000,1100,300,1200,200,1300,1200,2600,1300,1800,900,700,–,–,–,–,–,–
O=c1cc2oc3ccc4ccccc4c3nc-2c2cccnc12,40,5,1,10,10,1,20,2,1,40,10,10,10,inactive,inactive,48.66,27.93,23.42,Active
Cc1cc(C)c2oc3cc(=O)c4ncccc4c-3nc2c1,1200,900,500,100,300,150,1500,1600,1700,1100,900,600,1200,–,–,–,–,–,–
COc1cccc2c1C(=O)c1c(O)c3c(c(O)c1C2=O)C[C@@](O)(C(=O)CO)C[C@@H]3O[C@H]1C[C@H](N)[C@H](O)[C@H](C)O1 [DOXORUBICIN],–,–,–,–,–,–,–,–,–,–,1,–,150,–,–,–,–,–,–
Cc1cc2nc3c4cccnc4c(=O)cc-3oc2cc1C,300,400,40,100,40,150,900,30,800,800,400,800,90,–,–,–,–,–,–
"Cc1c2oc3c(C)ccc(C(=O)N[C@@H]4C(=O)N[C@H](C(C)C)C(=O)N5CCC[C@H]5C(=O)N(C)CC(=O)N(C)[C@@H](C(C)C)C(=O)O[C@@H]4C)c3nc-2c(C(=O)N[C@@H]2C(=O)N[C@H](C(C)C)C(=O)N3CCC[C@H]3C(=O)N(C)CC(=O)N(C)[C@@H](C(C)C)C(=O)O[C@@H]2C)c(N)c1=O [DACTINOMYCIN] (I: T[dV]P[Sar][NMeV] / II: T[dV]P[Sar][NMeV]; ester I:1-I:C, II:1-II:C; linker I:N-II:N via Actinocin(1to9))",–,–,–,–,–,–,–,–,–,–,–,–,1,–,–,–,–,–,–
O=c1cc2oc3ccccc3nc-2c2cccnc12,–,–,–,20,10,–,–,200,–,–,–,–,100,–,–,–,–,–,–
Cc1ccc(C)c2oc3cc(=O)c4ncccc4c-3nc12,1600,1100,8000,80,400,700,700,5500,900,400,500,10,500,–,–,–,–,–,–
O=c1cc2oc3ccc4c(c3nc-2c2cccnc12)CCCC4,3200,4000,2000,1300,1000,1300,1300,1000,1600,1900,1800,1900,1700,–,–,–,–,–,–
O=c1cc2oc3cc4ccccc4cc3nc-2c2cccnc12,10,10,20,50,10,4,10,30,50,50,20,20,20,inactive,inactive,55.01,24.06,20.93,–
O=c1cc2oc3c4c(ccc3nc-2c2cccnc12)CCCC4,1900,2100,1000,1500,1400,1900,2000,2100,2500,1800,1900,1100,1000,–,–,–,–,–,–
Cc1cc(C)c2nc3c4cccnc4c(=O)cc-3oc2c1,500,70,200,40,20,100,1,200,200,300,1,5,300,–,–,–,–,–,–
O=c1cc2oc3cc4c(cc3nc-2c2cccnc12)CCCC4,1800,1200,1000,1500,2000,1100,1500,3300,1100,1700,1400,1000,1000,–,–,–,–,–,–
O=c1cc2oc3c(ccc4ccccc43)nc-2c2cccnc12,90,60,100,100,20,50,50,300,200,60,500,100,100,inactive,inactive,38.49,17.63,43.88,–
Cc1ccc2nc3c4cccnc4c(=O)cc-3oc2c1C,3000,1800,500,300,100,6000,30,6900,600,400,5,1800,400,–,–,–,–,–,–
